Values of other authors in patent publication US20210316006A1, “PYRROLOBENZODIAZEPINE CONJUGATES” (priority 2018, published 2021).

Columns and labels:
[1] = quoted from Mantaj et al. 2016
[2] = in vitro; quoted from Gregson et al. 1999

Structure (SMILES) | activity in vivo [1] | cytotoxic potency relative to DSB-120 [2] [fold]
COc1cc2c(cc1OCCCOc1cc3c(cc1OC)C(=O)N1CCC[C@H]1C=N3)N=C[C@@H]1CCCN1C2=O [DSB-120] | poor activity in vivo | –
C=C1C[C@H]2C=Nc3cc(OCCCOc4cc5c(cc4OC)C(=O)N4CC(=C)C[C@H]4C=N5)c(OC)cc3C(=O)N2C1 [SG2000] | – | ~9000
